Measured values from patent publication US10174000B2, “Bicyclic-fused heteroaryl or aryl compounds as IRAK4 modulators” (PFIZER INC., priority 2015, dated 2019).

Experiments:
[1] = target: human IRAK4 FL (Full Length), phosphorylated (Homo sapiens (Human), UniProt Q9NWZ3); experiment: IRAK4 Enzymatic DELFIA Assay, Protocol A; type: biochemical; settings: 600 μM ATP (KM); full-length phosphorylated recombinant human IRAK4
Protocol: IRAK4 Enzymatic DELFIA Assay, Protocol A.
This is an in vitro assay to measure IRAK4 enzymatic activity utilizing the DELFIA (Dissociation-Enhanced Lanthanide Fluorescent Immunoassay, Perkin-Elmer) platform, with the human IRAK4 FL (Full Length) construct to characterize IRAK4 inhibitor and control compounds at 600 μM ATP (KM). The final amount of enzyme in the assay is 0.1 nM IRAK4 FL, final concentration of substrate is 50 nM, and final concentration of DMSO is 2.5%.
The test compound was solubilized in DMSO to a stock concentration of 30 mM. The dose response plates were prepared with a 4 mM primary compound concentration (40-fold multiple of the final in-assay concentration), and diluted in DMSO in a four-fold series for a total of 11 data points. 1 μL of the compound dilution plate is spotted into ultra-clear polypropylene, 384-well, U-bottom plates (Corning Life Sciences).
To begin the assay, 19 μL of reaction mixture containing 20 mM HEPES pH=7.5, 5 mM MgCl2, 0.0025% Brij-35, 600 μM ATP, 0.21 nM Full-length phosphorylated recombinant human IRAK4 (GenBank ID AF445802) are aliquoted into the polypropylene, 384-well, U-bottom plates containing 1 μL of test compound, mixed briefly and incubated for 20 minutes at room temperature (RT). Then, 20 μL of 20 mM HEPES pH=7.5, 5 mM MgCl2, 0.0025% Brij-35, 600 μM ATP, and 100 nM ERM-biotinylated peptide (AGAGRDKYKTLRQIR) is added to start the reaction. The reaction is incubated for 60 minutes at RT and stopped by the addition of 20 μL 0.3M EDTA.
(§1) 50 μL of the reaction mixture was transferred to a streptavidin-coated detection plate (DELFIA streptavidin coated plates, 384-well, white plates, Perkin-Elmer Life Sciences) and incubated for 30 minutes at RT. The plates were washed 4× with 75 μL per well of PBS containing 0.05% Tween-20. Plates were then incubated with 50 μL per well of antibody cocktail of Anti-pERM antibody at 0.125 μg/mL (Cell Signaling Technology), plus Anti-Rabbit IgG EuN1 at 0.25 μg/ml (Perkin-Elmer Life Sciences) in a solution of 10 mM MOPS pH=7.5, 150 mM NaCl, 0.05% Tween-20, 0.02% NaN3, 1% BSA, 0.1% Gelatin for 45 minutes. The plates were then washed as before. 50 μL per well of DELFIA Enhancement Solution (Perkin-Elmer Life Sciences) was added to the plate and incubated for 15 minutes at RT prior to being read on an Envision Model 2104 multi-label reader using a 340 nm excitation wavelength and a […] emission wavelength for detection.

[2] = target: inactive, unphosphorylated (0-phos), human IRAK4 FL (Full Length) (Homo sapiens (Human), UniProt Q9NWZ3); experiment: IRAK4 Enzymatic DELFIA Assay, Protocol B; type: biochemical; settings: 600 μM ATP (KM), full-length recombinant human IRAK4
inactive, unphosphorylated (0-phos), human IRAK4 FL (Full Length), sequence (Q9NWZ3 whole entry): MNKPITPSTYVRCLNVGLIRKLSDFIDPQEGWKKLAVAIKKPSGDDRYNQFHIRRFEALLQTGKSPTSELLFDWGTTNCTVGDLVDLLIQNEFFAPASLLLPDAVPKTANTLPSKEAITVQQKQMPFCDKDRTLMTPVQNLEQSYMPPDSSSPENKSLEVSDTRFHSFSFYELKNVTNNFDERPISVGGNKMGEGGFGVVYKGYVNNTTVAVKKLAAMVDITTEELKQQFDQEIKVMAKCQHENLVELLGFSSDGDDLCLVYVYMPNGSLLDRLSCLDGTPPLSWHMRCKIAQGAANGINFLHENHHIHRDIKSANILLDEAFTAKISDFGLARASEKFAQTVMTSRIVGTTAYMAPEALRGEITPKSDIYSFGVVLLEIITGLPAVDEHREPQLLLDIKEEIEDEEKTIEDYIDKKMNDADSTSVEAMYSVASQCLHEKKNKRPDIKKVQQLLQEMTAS
Protocol: IRAK4 Enzymatic DELFIA Assay, Protocol B.
The test compound is solubilized in DMSO to a stock concentration of 30 mM. The dose response plates were prepared with a 4 mM primary compound concentration, serialized in DMSO and spotted (1 μL) into 384-well polypropylene plates as before.
20 uL of 20 mM HEPES pH=7.5, 5 mM MgCl2, 0.0025% Brij-35, 600 μM ATP, and 100 nM ERM-biotinylated peptide (AGAGRDKYKTLRQIR) was added to start the reaction, which was run for 90 minutes at RT and stopped by the addition of 20 μL 0.3M EDTA.
as §1

human IRAK4 FL (Full Length), phosphorylated, sequence (Q9NWZ3 whole entry): as above

IC50 [1]	IC50 [2]	Compound
38.5 nM	21 nM	COc1cc2c(OC[C@H]3NC(=O)[C@H](F)C34CC4)nccc2cc1C(N)=O [Example 21, 1-(((4S,7R)-7-fluoro-6-oxo-5-azaspiro[2.4]heptan-4-yl)methoxy)-7-methoxyisoquinoline-6-carboxamide]
20.7 nM	1.2 nM	CC(C)Oc1cc2c(OC[C@H]3NC(=O)[C@H](F)C34CC4)nccc2cc1C(N)=O [Example 17, 1-(((4S,7R)-7-fluoro-6-oxo-5-azaspiro[2.4]heptan-4-yl)methoxy)-7-isopropoxyisoquinoline-6-carboxamide]
16000 nM	870 nM	CC(C)Oc1cc2c(OC[C@@H]3NC(=O)[C@H](F)C34CC4)nccc2cc1C(N)=O [Example 18, 1-(((4R,7R)-7-fluoro-6-oxo-5-azaspiro[2.4]heptan-4-yl)methoxy)-7-isopropoxyisoquinoline-6-carboxamide]
4500 nM	390 nM	CC(C)Oc1cc2c(OC[C@@H]3NC(=O)[C@@H](F)C34CC4)nccc2cc1C(N)=O [Example 16, 1-(((4R,7S)-7-fluoro-6-oxo-5-azaspiro[2.4]heptan-4-yl)methoxy)-7-isopropoxyisoquinoline-6-carboxamide]
> 100000 nM	6500 nM	CC[C@@H]1CC(=O)N[C@@H]1COc1ncc(NS(=O)(=O)c2c[nH]cn2)c2cc(C(N)=O)c(OC(C)C)cc12 [Example 12, 1-{[(2S,3R)-3-Ethyl-5-oxopyrrolidin-2-yl]methoxy}-4-[(1H-imidazol-4-ylsulfonyl)amino]-7-(propan-2-yloxy)isoquinoline-6-carboxamide]
4200 nM	350 nM	COc1cc2c(OCC34CC3CC(=O)N4)nccc2cc1C(N)=O (racemic) [Example 29, 7-methoxy-1-[(3-oxo-2-azabicyclo[3.1.0]hex-1-yl)methoxy]isoquinoline-6-carboxamide]
4300 nM	151 nM	COc1cc2c(OC[C@]34C[C@H]3CC(=O)N4)nccc2cc1C(N)=O [Example 30, 7-methoxy-1-{[(1S,5S)-3-oxo-2-azabicyclo[3.1.0]hex-1-yl]methoxy}isoquinoline-6-carboxamide]
	2000 nM	CNC(=O)c1cc2ccnc(OC[C@H]3NC(=O)[C@@H](F)[C@H]3C)c2cc1OC [Example 33, 1-(((2S,3S,4S)-4-fluoro-3-methyl-5-oxopyrrolidin-2-yl)methoxy)-7-methoxy-N-methylisoquinoline-6-carboxamide]
2900 nM	230 nM	Cc1c[nH]c(-c2cnc(OC[C@@H]3CCC(=O)N3)c3cc(OC(C)C)c(C(N)=O)cc23)n1 [Example 3, 4-(4-Methyl-1H-imidazol-2-yl)-1-{[(2S)-5-oxopyrrolidin-2-yl]methoxy}-7-(propan-2-yloxy)isoquinoline-6-carboxamide]
> 100000 nM	12000 nM	CC[C@@H]1CC(=O)N[C@@H]1COc1ncc(NS(=O)(=O)c2cn(C)cn2)c2cc(C(N)=O)c(OC(C)C)cc12 [Example 13, 1-{[(2S,3R)-3-Ethyl-5-oxopyrrolidin-2-yl]methoxy}-4-{[(1-methyl-1H-imidazol-4-yl)sulfonyl]amino}-7-(propan-2-yloxy)isoquinoline-6-carboxamide]
1900 nM		NC(=O)c1cc2ccnc3c2cc1OCCOC[C@H]1C[C@@H](CO3)NC1=O [Example 28, (3S,6R)-5-oxo-2,3,4,5,6,7,9,10-octahydro-12,14-(ethanediylidene)-3,6-methanopyrido[2,3-l][1,4,11,8]trioxazacyclopentadecine-19-carboxamide]
> 100000 nM	5700 nM	CC[C@@H]1CC(=O)N[C@@H]1COc1ncc(NS(=O)(=O)c2ccccc2)c2cc(C(N)=O)c(OC(C)C)cc12 [Example 10, 1-{[(2S,3R)-3-ethyl-5-oxopyrrolidin-2-yl]methoxy}-4-[(phenylsulfonyl)amino]-7-(propan-2-yloxy)isoquinoline-6-carboxamide]
> 100000 nM	1200 nM	COc1cc2c(OC[C@@]34C[C@@H]3CC(=O)N4)nccc2cc1C(N)=O [Example 31, 7-methoxy-1-{[(1R,5R)-3-oxo-2-azabicyclo[3.1.0]hex-1-yl]methoxy}isoquinoline-6-carboxamide]
1450 nM	110 nM	COc1cc2c(OC[C@@H]3NC(=O)[C@H](F)C34CC4)nccc2cc1C(N)=O [Example 23, 1-(((4R,7R)-7-fluoro-6-oxo-5-azaspiro[2.4]heptan-4-yl)methoxy)-7-methoxyisoquinoline-6-carboxamide]
> 100000 nM	1300 nM	CC[C@@H]1CC(=O)N[C@@H]1COc1ncc(NS(=O)(=O)c2cccnc2)c2cc(C(N)=O)c(OC(C)C)cc12 [Example 11, 1-{[(2S,3R)-3-Ethyl-5-oxopyrrolidin-2-yl]methoxy}-7-(propan-2-yloxy)-4-[(pyridin-3-ylsulfonyl)amino]isoquinoline-6-carboxamide]
188 nM	4 nM	CC(C)Oc1cc2c(OC[C@@H]3CCC(=O)N3)ncc(-c3ncco3)c2cc1C(N)=O [Example 2, 4-(1,3-Oxazol-2-yl)-1-{[(2S)-5-oxopyrrolidin-2-yl]methoxy}-7-(propan-2-yloxy)isoquinoline-6-carboxamide]
29000 nM	15000 nM	CC[C@@H]1CC(=O)N[C@@H]1COc1ncc(NS(=O)(=O)c2cn(C)c(C)n2)c2cc(C(N)=O)c(OC(C)C)cc12 [Example 14, 4-{[(1,2-Dimethyl-1H-imidazol-4-yl)sulfonyl]amino}-1-{[(2S,3R)-3-ethyl-5-oxopyrrolidin-2-yl]methoxy}-7-(propan-2-yloxy)isoquinoline-6-carboxamide]
57 nM	3.2 nM	Cc1nc(-c2cnc(OC[C@@H]3CCC(=O)N3)c3cc(OC(C)C)c(C(N)=O)cc23)oc1C [Example 7, 4-(4,5-Dimethyl-1,3-oxazol-2-yl)-1-{[(2S)-5-oxopyrrolidin-2-yl]methoxy}-7-(propan-2-yloxy)isoquinoline-6-carboxamide]
227 nM	3 nM	Cc1coc(-c2cnc(OC[C@@H]3CCC(=O)N3)c3cc(OC(C)C)c(C(N)=O)cc23)n1 [Example 6, 4-(4-Methyl-1,3-oxazol-2-yl)-1-{[(2S)-5-oxopyrrolidin-2-yl]methoxy}-7-(propan-2-yloxy)isoquinoline-6-carboxamide]
112 nM	10 nM	CC(C)Oc1cc2c(OC[C@@H]3CCC(=O)N3)ncc(-c3ccn(C)n3)c2cc1C(N)=O [Example 4, 4-(1-Methyl-1H-pyrazol-3-yl)-1-{[(2S)-5-oxopyrrolidin-2-yl]methoxy}-7-(propan-2-yloxy)isoquinoline-6-carboxamide]
3.7 nM	1.1 nM	CC(C)Oc1cc2c(OC[C@@H]3CCC(=O)N3)ncc(-c3cnn(C)c3)c2cc1C(N)=O [Example 5, 4-(1-methyl-1H-pyrazol-4-yl)-1-{[(2S)-5-oxopyrrolidin-2-yl]methoxy}-7-(propan-2-yloxy)isoquinoline-6-carboxamide]
47 nM	2.7 nM	CC[C@@H]1CC(=O)N[C@@H]1COc1cncc2cc(C(N)=O)c(OC)cc12 [Example 25, 4-(((2S,3R)-3-ethyl-5-oxopyrrolidin-2-yl)methoxy)-6-methoxyisoquinoline-7-carboxamide]
0.8 nM	0.1 nM	CC[C@@H]1[C@H](F)C(=O)N[C@@H]1COc1cccc2cc(C(N)=O)c(OC)cc12 [Example 27, 5-(((2S,3S,4S)-3-ethyl-4-fluoro-5-oxopyrrolidin-2-yl)methoxy)-3-methoxy-2-naphthamide]
7.5 nM	2 nM	CC[C@@H]1[C@H](F)C(=O)N[C@@H]1COc1cccc2cc(C(N)=O)c(OC)nc12 [Example 1, 8-{[(2S,3S,4S)-3-Ethyl-4-fluoro-5-oxopyrrolidin-2-yl]methoxy}-2-methoxyquinoline-3-carboxamide]
